In US8916579B2, “5-fluoropyrimidinone derivatives” (Dow AgroSciences, LLC., priority 2009, dated 2014):
Where two headings read alike, the source gives them in different places.

Columns and labels:
[1] = test system: Mycosphaerella graminicola; anamorph: Septoria tritici; Bayer code SEPTTR; assay: Fungicidal activity: leaf blotch of wheat, greenhouse wheat plants (variety Yuma), percent disease control; format: in vivo; settings: Zymoseptoria tritici
Method: Evaluation of Fungicidal Activity: Leaf Blotch of Wheat (Mycosphaerella graminicola; anamorph: Septoria tritici; Bayer code SEPTTR)
Wheat plants (variety Yuma) were grown from seed in a greenhouse in 50% mineral soil/50% soil-less Metro mix until the first leaf was fully emerged, with 7-10 seedlings per pot. These plants were inoculated with an aqueous spore suspension of Septoria tritici either prior to or after fungicide treatments. After inoculation the plants were kept in 100% relative humidity (one day in a dark dew chamber followed by two to three days in a lighted dew chamber) to permit spores to germinate and infect the leaf. The plants were then transferred to a greenhouse for disease to develop.
The effectiveness of the test compounds in controlling disease was determined by assessing the severity of disease on treated plants, then converting the severity to percent control based on the level of disease on untreated, inoculated plants. • In each case of Table II the rating scale is as follows: […]

[2] = 24 h, One-Day Protectant (1DP), 100 ppm, wheat plants, read-out: SEPTTR 100 PPM 1DP (% Disease Control rating)
[3] = 72 h, Three-Day Curative (3DC), 100 ppm, wheat plants, read-out: SEPTTR 100 PPM 3DC (% Disease Control rating)
[4] = 24 h, read-out: SEPTTR 100 PPM 1DP (% Disease Control rating)
[5] = 72 h, read-out: SEPTTR 100 PPM 3DC (% Disease Control rating)

Row | SMILES | pest or weed control at 100 ppm [1, 2] [%] | pest or weed control at 100 ppm [1, 3] [%] | melting point [°C] | further results
1 | CSCn1cc(F)c(NC(=O)Nc2ccc(C)cc2)nc1=O [Compound 93] | 0 to 25 | 51 to 75 | 188.8 to 190.2 | –
2 | Nc1nc(=O)n(CC2CC2)cc1F [Compound 74, 4-amino-1-(cyclopropylmethyl)-5-fluoropyrimidin-2(1H)-one] | 76 to 100 | 51 to 75 | – | –
3 | CCNc1nc(=O)n(CC(C)C)cc1F [Compound 107] | 0 to 25 | 26 to 50 | – | –
4 | Nc1nc(=O)n(-c2ccsc2)cc1F [Compound 39, 4-amino-5-fluoro-1-(thiophen-3-yl)pyrimidin-2(1H)-one] | – | – | 228 to 229 | pest or weed control at 100 ppm [1, 4]: 0 to 25%; pest or weed control at 100 ppm [1, 5]: 76 to 100%
5 | Nc1nc(=O)n(COc2ccc(Cl)cc2)cc1F [Compound 19] | 26 to 50 | 0 to 25 | 240 to 245 | –
6 | O=C(Nc1ccccc1Cl)Nc1nc(=O)n(Cc2cccnc2)cc1F [Compound 91] | 0 to 25 | 0 to 25 | 210.5 to 212.3 | –
7 | Nc1nc(=O)n(/C=C/c2ccccc2)cc1F [Compound 48] | – | – | 256 to 258 | –
8 | O=c1nc(NCOCc2ccccc2)c(F)cn1COCc1ccccc1 [Compound 15, 1-(benzyloxymethyl)-4-(benzyloxymethylamino)-5-fluoropyrimidin-2(1H)-one] | 0 to 25 | 0 to 25 | – | –
9 | O=c1nc(NCc2ccccc2F)c(F)cn1-c1ccsc1 [Compound 65, 5-fluoro-4-(2-fluorobenzylamino)-1-(thiophen-3-yl)pyrimidin-2(1H)-one] | 0 to 25 | 0 to 25 | 75 to 78 | –
10 | Nc1nc(=O)n(CCc2ccc(Cl)cc2)cc1F [Compound 31] | 0 to 25 | 76 to 100 | 252 to 254 | –
11 | CC(=O)Nc1nc(=O)n(CC(C)C)cc1F [Compound 97] | 26 to 50 | 26 to 50 | 134.5 to 136.5 | –
12 | CC(C)Cn1cc(F)c(NCc2cccs2)nc1=O [Compound 106] | 26 to 50 | 26 to 50 | 88.8 to 91.7 | –
13 | CCOCCn1cc(F)c(N)nc1=O [Compound 78] | – | – | 207.3 to 208.2 | –
14 | CCCC(=O)OCn1cc(F)c(N)nc1=O [Compound 21] | 76 to 100 | 76 to 100 | 210 to 214 | –
15 | O=C(Nc1ccccc1Cl)Nc1nc(=O)n(CC2CC2)cc1F [Compound 85, 1-(2-chlorophenyl)-3-(1-(cyclopropylmethyl)-5-fluoro-2-oxo-1,2-dihydropyrimidin-4-yl)urea] | 0 to 25 | 0 to 25 | 197 to 199 | –
16 | O=c1nc(NCN2CCOCC2)c(F)cn1CN1CCOCC1 [Compound 1, 5-fluoro-1-morpholin-4-ylmethyl-4-[(morpholin-4-ylmethyl)amino]-1H-pyrimidin-2-one] | – | – | – | pest or weed control at 100 ppm [1, 4]: 76 to 100%; pest or weed control at 100 ppm [1, 5]: 76 to 100%
17 | CS(=O)(=O)c1ccc(-n2cc(F)c(N)nc2=O)cc1 [Compound 50] | – | – | 244.4 to 245.7 | –
18 | Nc1nc(=O)n(-c2ccccc2)cc1F [Compound 42] | – | – | 233 to 235 | –
19 | O=c1nc(NCc2ccccc2F)c(F)cn1C1=CCCCC1 [Compound 69] | – | – | 151.5 to 152.6 | –
20 | Cc1ccc(Cn2cc(F)c(N)nc2=O)cc1 [Compound 25, 4-amino-5-fluoro-1-(4-methylbenzyl)-pyrimidin-2(1H)-one] | 0 to 25 | 0 to 25 | – | –
21 | CN1CCN(CNc2nc(=O)n(CN3CCN(C)CC3)cc2F)CC1 [Compound 2, 5-fluoro-1-(4-methylpiperazin-1-ylmethyl)-4-[(4-methylpiperazin-1-ylmethyl)-amino]-1H-pyrimidin-2-one] | – | – | – | pest or weed control at 100 ppm [1, 4]: 76 to 100%; pest or weed control at 100 ppm [1, 5]: 76 to 100%
22 | C=C(c1ccccc1)n1cc(F)c(NCc2ccccc2F)nc1=O [Compound 70] | – | – | 138.9 to 140.2 | –
23 | Nc1nc(=O)n(-c2ccc(Cl)cc2)cc1F [Compound 45] | – | – | 255 to 257 | –
24 | COc1ccc(-n2cc(F)c(N)nc2=O)cc1 [Compound 44] | – | – | 230 to 232 | –
25 | CS(=O)(=O)c1ccc(-n2cc(F)c(NCc3ccccc3F)nc2=O)cc1 [Compound 68] | – | – | 231.6 to 233.1 | –
26 | COc1ccc(/C=C/n2cc(F)c(/N=C/N(C)C)nc2=O)cc1 [Compound 63] | – | – | 264.3 to 265.3 | –
27 | CCOCCn1cc(F)c(NC(=O)c2ccccc2F)nc1=O [Compound 101] | – | – | 116.8 to 117.8 | –
28 | C=C(c1ccccc1)n1cc(F)c(/N=C/N(C)C)nc1=O [Compound 61] | – | – | 147 to 147.9 | –

Row | SMILES | pest or weed control at 100 ppm [1, 2] [%] | pest or weed control at 100 ppm [1, 3] [%] | melting point [°C] | further results
29 | CCC/C=C/n1cc(F)c(N)nc1=O [Compound 53] | – | – | 152.8 to 153.4 | –
30 | CC(=O)Nc1nc(=O)n(CC2CCCO2)cc1F (stereo not drawn) [Compound 95] | 0 to 25 | 51 to 75 | – | –
31 | CCNc1nc(=O)n(CCOCC)cc1F [Compound 108] | – | – | 63 to 65 | –
32 | C=C(c1ccccc1)n1cc(F)c(N)nc1=O [Compound 52] | – | – | 211.2 to 213 | –
33 | CC(C)Cn1cc(F)c(NCc2ccccc2F)nc1=O [Compound 105, 5-fluoro-4-(2-fluorobenzylamino)-1-isobutyl-pyrimidin-2(1H)-one] | – | – | – | pest or weed control at 100 ppm [1, 4]: 0 to 25%; pest or weed control at 100 ppm [1, 5]: 26 to 50%
34 | Cc1ccc(C(=O)Nc2nc(=O)n(C)cc2F)cc1 [Compound 8, N-(5-fluoro-1-methyl-2-oxo-1,2-dihydro-pyrimidin-4-yl)-4-methyl-benzamide] | 26 to 50 | 0 to 25 | – | –
35 | CCC/C=C/n1cc(F)c(/N=C/N(C)C)nc1=O [Compound 62] | – | – | 144.7 to 146.3 | –
36 | CN(C)/C=N/c1nc(=O)n(COC(=O)C(C)(C)C)cc1F [Compound 12, 2,2-dimethylpropionic acid 4-(dimethylamino-methyleneamino)-5-fluoro-2-oxo-2H-pyrimidin-1-ylmethyl ester] | 76 to 100 | 76 to 100 | – | –
37 | CN(C)/C=N/c1nc(=O)n(C2=CCCCC2)cc1F [Compound 60] | – | – | 173.2 to 174.4 | –
38 | CCOCn1cc(F)c(NCc2ccccc2F)nc1=O [Compound 37, 1-(ethoxymethyl)-5-fluoro-4-(2-fluorobenzylamino)-pyrimidin-2(1H)-one] | 0 to 25 | 0 to 25 | – | –
39 | Nc1nc(=O)n(/C=C/Cc2ccccc2)cc1F [Compound 49] | – | – | 212 to 214 | –
40 | CN(c1nc(=O)n(C)cc1F)S(=O)(=O)Cc1ccccc1 [Compound 9, N-(5-fluoro-1-methyl-2-oxo-1,2-dihydropyrimidin-4-yl)-N-methyl-C-phenylmethanesulfonamide] | 26 to 50 | 0 to 25 | – | –
41 | COc1ccc(/C=C/n2cc(F)c(N)nc2=O)cc1 [Compound 54] | – | – | 263.3 to 265.1 | –
42 | CN(C)/C=N/c1nc(=O)n(Cc2ccc(F)cc2)cc1F [Compound 4, N′-[5-fluoro-1-(4-fluorobenzyl)-2-oxo-1,2-dihydro-pyrimidin-4-yl]-N,N-dimethylformamidine] | 26 to 50 | 0 to 25 | – | –
43 | Nc1nc(=O)n(Cc2cccnc2)cc1F [Compound 75] | 26 to 50 | 76 to 100 | – | –
44 | CN(C)/C=N/c1nc(=O)n(-c2ccc3ccccc3c2)cc1F [Compound 64] | – | – | 222.4 to 224.4 | –
45 | CCOC(=O)Nc1nc(=O)n(CSC)cc1F [Compound 84] | – | – | 137.1 to 138.8 | –
46 | O=c1nc(NCc2ccccc2F)c(F)cn1-c1ccc2ccccc2c1 [Compound 73] | – | – | 207.5 to 209 | –
47 | CSCn1cc(F)c(N)nc1=O [Compound 79] | – | – | 128.5 to 130.6 | –
48 | Nc1nc(=O)n(-c2ccc3ccccc3c2)cc1F [Compound 55] | – | – | 272.8 to 274.2 | –
49 | CCOC(=O)Nc1nc(=O)n(Cc2cccnc2)cc1F [Compound 83] | 26 to 50 | 26 to 50 | – | –
50 | CC(C)COC(=O)N(C)c1nc(=O)n(C)cc1F [Compound 11, (5-fluoro-1-methyl-2-oxo-1,2-dihydropyrimidin-4-yl)methylcarbamic acid isobutyl ester] | – | – | – | pest or weed control at 100 ppm [1, 4]: 26 to 50%; pest or weed control at 100 ppm [1, 5]: 0 to 25%
51 | CCOCCn1cc(F)c(NC(=O)c2cccs2)nc1=O [Compound 100] | – | – | 109 to 110.4 | –
52 | Nc1nc(=O)n(C2=CCCCC2)cc1F [Compound 51] | – | – | 190.6 to 192.7 | –
53 | CN(C)/C=N/c1nc(=O)n(Cc2ccc(Cl)cc2Cl)cc1F [Compound 5] | 0 to 25 | 0 to 25 | – | –
54 | COc1ccc(/C=C/n2cc(F)c(NCc3ccccc3F)nc2=O)cc1 [Compound 72] | – | – | 196.8 to 198.5 | –
55 | Cc1ccc(Cn2cc(F)c(N(C)Cc3ccccc3F)nc2=O)cc1 [Compound 38, 5-fluoro-4-((2-fluorobenzyl)(methyl)amino)-1-(4-methylbenzyl)pyrimidin-2(1H)-one] | 0 to 25 | 0 to 25 | – | –
